The text below walks through data of PMC12913230, “Investigating the Ligand‐Binding Properties of N‐arylbenzimidazoles as Novel Elastase Inhibitors” (Chemmedchem, 2025).

Data set [1] addresses T1, porcine pancreatic elastase (PPE) (Sus scrofa, UniProt P00772).
T1 construct: purchased Merck Sigma Aldrich (Milano, Italy)
The experiment in a line: Elastase inhibition assay with SANA substrate. Type of data set: biochemical. Conditions: for %I @50 μM / mode of inhibition (Lineweaver–Burk plot) / IC50: PPE; for %I @50 μM: 50 µM compound, SANA substrate, mean ± SD, n = 3; for mode of inhibition (Lineweaver–Burk plot): SANA as substrate; for IC50: SANA substrate 1.6 mM, Tris-HCl pH 8.0; for Ki: binding with the free enzyme, secondary plot of Lineweaver–Burk slopes, SANA 0.5-1.5 mM, read-out: inhibition constant (Ki). How it is done:
The inhibition mechanism was assessed using Lineweaver–Burk plot analysis.
Elastase inhibition was determined using the substrate N‐succ‐(Ala)3‐nitroanilide (SANA) as previously described.^[ [27] ^] The assay was performed in 0.1 M Tris‐HCl buffer (pH 8.0). PPE (3.3 µg mL^−1) was incubated with or without the compound for 20 min, and after incubation, the substrate (1.6 mM) was added. The release of p‐nitroaniline during cleavage of the substrate SANA by the enzyme activity was monitored at 410 nm. The control was performed with DMSO, while oleanolic acid was used as a positive control. […] The mode of inhibition on the enzyme was performed using the Lineweaver–Burk plot. Different concentrations of SANA (0.5, 0.75, 1.0, and 1.5 mM) were used for the assay. All reagents were purchased from “Merck Sigma Aldrich” (Milano, Italy).

The nature of data set [2]: Relative lipophilicity by reverse-phase TLC (RM). The data set is classed as physicochemical. Conditions: RP-TLC C18, acetone–water 2/1 v/v, 25 °C, RM = log[(1/RF) − 1]. How it is done: In addition, we assessed the relative lipophilicity of the investigated compounds using the reverse‐phase thin layer chromatography (RP‐TLC), following the procedure detailed in Experimental Section. Based on retention factor (R F), we obtained the corresponding R M values for the homogenous series of compounds 1–9. The applied methodology is described in detail in the Experimental Section.
The experimental determination of relative lipophilicity was carried out using reversed‐phase thin‐layer chromatography (20 × 20 cm plates coated with C18 silica RP18 F254, E. Merck, Darmstadt, Germany). A binary solvent system consisting of acetone–water (2/1, v/v) served as the mobile phase. Compounds 1–9 were prepared in methanol to obtain a concentration of 2.0 mg/mL; from these working solutions, a volume of 0.2 μL was spotted on the plate, which was dried at 105 °C for 1 h before use. The chromatograms were developed to a distance of 10 cm from the origin in ascending TLC chambers and developed at 25 °C. After development, compound spots were visualized under UV light at 254 nm. Each determination was performed as triplicate 3 by spotting the compounds on the plate in distinct position; therefore, each RF value resulted as a mean value obtained in triplicate.

Data set [3] deals with T1, porcine pancreatic elastase (PPE). On the set-up: method as in PMID 39456954. Conditions: PPE active site; cited from earlier work.

Molecules are shown by their SMILES.

T1 sequence (P00772 27-266): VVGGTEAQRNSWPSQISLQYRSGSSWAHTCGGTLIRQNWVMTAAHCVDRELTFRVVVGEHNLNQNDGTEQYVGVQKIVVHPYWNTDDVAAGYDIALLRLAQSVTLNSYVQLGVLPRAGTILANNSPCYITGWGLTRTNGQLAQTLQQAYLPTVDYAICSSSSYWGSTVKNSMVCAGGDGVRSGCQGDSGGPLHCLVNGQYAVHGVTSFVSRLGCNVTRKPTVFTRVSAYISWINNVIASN

Turning to `Cc1cc(C)cc(Cn2c(SCC(=O)Nc3ccc(C)cc3Cl)nc3ccccc32)c1` [Compound 1, N‐(2‐chloro‐4‐methylphenyl)‐2‐[[1‐[(3,5‐dimethylphenyl)methyl]‐1H‐benzimidazol‐2‐yl]thio]acetamide], the “%I @50 μM” value in data set [1] is recorded as 30.0 ± 2.1%. Moreover, the “RM (relative lipophilicity)” value in data set [2] amounted to 1.023. Moreover, the mode of inhibition result in data set [3] is listed as “reversible competitive inhibitor”.
Regarding `Cc1cc(C)cc(Cn2c(SCC(=O)Nc3ccccc3Cl)nc3ccccc32)c1` [Compound 2, N‐(2‐Chlorophenyl)‐2‐(1‐(3,5‐dimethylbenzyl)‐1H‐benzo[d]imidazol‐2‐ylthio)acetamide], the “%I @50 μM” value in data set [1] is recorded as 29.1 ± 2.3%. Further, in data set [2], the “RM (relative lipophilicity)” value was 0.971.
The corresponding values for `Cc1cc(C)cc(Cn2c(SCC(=O)Nc3ccccc3Br)nc3ccccc32)c1` [Compound 3, N‐(2‐Bromophenyl)‐2‐(1‐(3,5‐dimethylbenzyl)‐1H‐benzo[d]imidazol‐2‐ylthio)acetamide] are 26.5 ± 0.4% and 0.938.
For `Cc1cc(C)cc(Cn2c(SCC(=O)Nc3ccc(S(C)(=O)=O)cc3Cl)nc3ccccc32)c1` [Compound 4, N‐(2‐Chloro‐4‐(methylsulfonyl)phenyl)‐2‐(1‐(3,5‐dimethylbenzyl)‐1H‐benzo[d]imidazol‐2‐ylthio)acetamide] the same measures were 17.3 ± 0.7% and 0.678.
On to `Cc1cc(C)cc(Cn2c(SCC(=O)Nc3ccc(S(N)(=O)=O)cc3Cl)nc3ccccc32)c1` [Compound 5, N‐(2‐Chloro‐4‐sulfamoylphenyl)‐2‐(1‐(3,5‐dimethylbenzyl)‐1‐benzo[d]imidazol‐2‐ylthio)acetamide], for which the “%I @50 μM” value in data set [1] worked out at 19.3 ± 0.9%. Also, in data set [2], the “RM (relative lipophilicity)” value turned out to be 0.558.
As usually defined, the IC50 is the concentration that inhibits the measured activity by half. High values mean weaker potency in that assay, low ones greater potency in that assay. As a reminder, the Ki is the dissociation constant of the complex between target and ligand, obtained from inhibition or displacement. Turning to `Cc1cc(C)cc(Cn2c(SCC(=O)Nc3ccccc3Cl)nc3ccc(Cl)cc32)c1` [Compound 6, 2‐(6‐Chloro‐1‐(3,5‐dimethylbenzyl)‐1H‐benzo[d]imidazol‐2‐ylthio)‐N‐(2‐chlorophenyl)acetamide], in data set [1], the “%I @50 μM” value is 57.4 ± 2.6%, the “mode of inhibition (Lineweaver–Burk plot)” value is listed as “competitive”, the IC50 is 44.8 ± 1.4 µM and the Ki was 25.8 µM. For the same compound, the “RM (relative lipophilicity)” value in data set [2] worked out at 1.221.
For `Cc1cc(C)cc(Cn2c(SCC(=O)Nc3ccccc3Br)nc3ccc(Cl)cc32)c1` [Compound 7, N‐(2‐Bromophenyl)‐2‐(6‐chloro‐1‐(3,5‐dimethylbenzyl)‐1H‐benzo[d]imidazol‐2‐ylthio)acetamide] the same measures were 62.2 ± 2.1%, “competitive”, 41.1 ± 1.9 µM, 21 µM and 1.195.
`Cc1cc(C)cc(Cn2c(SCC(=O)Nc3ccc(C)cc3Cl)nc3ccc(Cl)cc32)c1` [Compound 8, 2‐(6‐chloro‐1‐(3,5‐dimethylbenzyl)‐1H‐benzo[d]imidazol‐2‐ylthio)‐N‐(2‐chloro‐4‐methylphenyl)acetamide]: the “%I @50 μM” value in data set [1] was 40.6 ± 0.7%. In addition, the “RM (relative lipophilicity)” value in data set [2] is given as 1.121.
For `Cc1cc(C)cc(Cn2c(SCC(=O)Nc3ccc(S(C)(=O)=O)cc3Cl)nc3ccc(Cl)cc32)c1` [Compound 9, 2‐(6‐Chloro‐1‐(3,5‐dimethylbenzyl)‐1H‐benzo[d]imidazol‐2‐ylthio)‐N‐(2‐chloro‐4‐(methylsulfonyl)phenyl)acetamide] the same measures were 31.0 ± 0.6% and 1.023.
